Article PMC9267097, “Synthesis, In Vitro, and Computational Studies of PTP1B Phosphatase Inhibitors Based on Oxovanadium(IV) and Dioxovanadium(V) Complexes” (International Journal of Molecular Sciences, 2022)

Experiments:
[1] = target: T1, PTP1B phosphatase (Homo sapiens, UniProt P18031); assay: Recombinant PTP1B assay (pNPP substrate); format: biochemical; conditions: for inhibitory effect on PTP1B: 78.125 nM (lowest statistically significant concentration); for Ki: calculated as Ki = IC50/(S/Km + 1), S 1 mM, Km 0.7 mM, competitive type assumed from docking, read-out: Ki ± SD; for IC50: recombinant PTP1B 10 nM, 1 mM pNPP, 37 °C, HEPES pH 7.4; for inhibition of PTP1B: concentration range 39.063 to 625 nM
T1 construct: purchased Cayman Chemical, Ann Arbor, MI, USA
T1 sequence (P18031 1-435): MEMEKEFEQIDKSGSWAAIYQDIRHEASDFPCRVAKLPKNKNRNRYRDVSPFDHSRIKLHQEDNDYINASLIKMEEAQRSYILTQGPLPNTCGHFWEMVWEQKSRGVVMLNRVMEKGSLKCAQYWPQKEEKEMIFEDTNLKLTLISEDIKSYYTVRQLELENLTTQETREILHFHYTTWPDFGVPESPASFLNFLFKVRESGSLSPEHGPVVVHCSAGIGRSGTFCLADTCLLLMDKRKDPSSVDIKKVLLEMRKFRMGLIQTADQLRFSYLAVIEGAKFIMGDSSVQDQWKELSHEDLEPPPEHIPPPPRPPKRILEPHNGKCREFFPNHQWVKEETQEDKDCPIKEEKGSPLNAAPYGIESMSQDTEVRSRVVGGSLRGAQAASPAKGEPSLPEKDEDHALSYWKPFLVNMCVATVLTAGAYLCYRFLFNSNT
Protocol: The experiment was carried out on 96-well plates. The final concentration of PTP1B phosphatase in the reaction samples was […] (10 nM). […] The enzyme activities of PTP1B phosphatase were evaluated at 37 °C using 1 mM chromogenic substrate para-nitrophenyl phosphate (pNPP) in 10 mM HEPES buffer pH 7.4. The increase in absorbance (due to the formation of para-nitrophenols) is linearly proportional to the concentration of enzyme activity (with excessive substrate, i.e., zero-order kinetics) and was measured at 405 nm using DigiRead Communication Software (version 1.2.0.2., Dan Kittrich, Asys Hitech GmbH, Eugendorf, Austria) on the Jupiter microplate reader (Biogenet, Józefów, Poland). Data were expressed as the percentage of untreated enzyme (control).

[2] = system: human keratinocyte HaCaT cell line; assay: Cell viability assay (MTT); format: cell-based; conditions: 24 h
Protocol: (§1) The MCF-7 and MDA-MB-231 breast cancer cell lines and the human keratinocyte HaCaT cell line were obtained from the American Type Culture Collection (ATCC, Manassas, VA, USA). Dulbecco’s modified eagle medium supplemented with 10% fetal bovine serum (FBS) and 1% penicillin/streptomycin was used to cultivate the cell lines. The cells were cultured at 37 °C in a 5% CO2 atmosphere.
(§2) According to the general protocol, a cell viability assay (MTT assay) was performed. […] The chemicals were dissolved in a growth medium containing 1% penicillin/streptomycin. After 24 h, 0.5 mg/mL of MTT solution (3-[4,5-dimethylthiazol-2-yl]-2,5-diphenyl-tetrazolium bromide) was added. 100 µL of DMSO was added to each well once the purple precipitate was clearly visible under the microscope. A microplate reader (Biogenet, Jozefow, Poland) and DigiRead Communication Software were used to measure the absorbance at 492 nm (Asys Hitech GmbH, Eugendorf, Austria). Data were expressed as the percentage of untreated cells (control).

[3] = system: MDA-MB-231 breast cancer cell line; assay: Cell viability assay (MTT); format: cell-based; conditions: 24 h
Protocol: as §1, §2

[4] = cited from earlier work; for equivalents of L-ascorbic acid: antioxidant activity towards superoxide radical anion
[5] = system: MCF-7 breast cancer cell line; assay: Cell viability assay (MTT); format: cell-based; conditions: 24 h
Protocol: as §1, §2

Row | Structure (SMILES) | inhibitory effect on PTP1B [1] [%] | Ki [1] [nM] | IC50 [1] [nM] | equivalents of L-ascorbic acid [4] | cell viability (% of control) ([3]; MDA-MB-231, 25 µM) [%] | cell viability (% of control) ([3]; MDA-MB-231, 50 µM) [%] | cell viability (% of control) ([3]; MDA-MB-231, 100 µM) [%] | inhibition of PTP1B [1] | further results
1 | O.O.O.O.O=C([O-])c1cccc(C(=O)[O-])n1.[O]=[V+2] [Compound 1, [VO(dipic)(H2O)2]·2 H2O] | 17 | 256 ± 15.3 | 628 ± 39.1 | 2.359 |  |  |  |  | cytotoxic effect (in words) ([2]; 50 µM): no cytotoxic effect; effect on cell growth (in words) ([2]; low concentrations): improved cell growth at low concentrations; cytotoxic effect ([3]; MDA-MB-231, 50 µM): 25%
2 | O.O=C([O-])c1cccc(C(=O)[O-])n1.[O]=[V+2].c1ccc(-c2ccccn2)nc1 [Compound 2, [VO(dipic)(bipy)]·H2O] | 19 | 173 ± 17.2 | 426 ± 37.1 | 0.936 | 65 | 56 | 44 |  | 
3 | O.O.O=C1CNCC(=O)[O][V](=[O])[O]1.c1ccc(-c2ccccn2)nc1 [Compound 3, [VO(ida)(bipy)]·2 H2O] | 25 | 221 ± 19.1 | 543 ± 48.4 | 5.43 | 76 | 55 | 46 |  | 
4 | COc1ccnc(-c2cc(OC)ccn2)c1.O.O.O=C([O-])c1cccc(C(=O)[O-])n1.[O]=[V+2] [Compound 4] |  | 74.2 ± 4.1 | 185 ± 9.8 |  |  |  |  | 31–67% | cell viability (% of control) ([5]; MCF-7, 25 µM): 86%; cell viability (% of control) ([5]; MCF-7, 50 µM): 61%; cell viability (% of control) ([5]; MCF-7, 100 µM): 53%
5 | O.O=C1[O][V-](=[O])(=[O])[O]C(=O)c2cccc1n2.c1ccc(-c2cccc[nH+]2)cc1 [Compound 5, [VOO(dipic)](2-phepyH)·H2O] |  | 66.7 ± 3.3 | 167 ± 8 |  |  |  |  | 38–68% | calculated equivalent towards L-ascorbic acid ([4]; antioxidant activity towards superoxide anion radicals): 0.68
6 | [Na+].[Na+].[Na+].[O]=[V]([O-])([O-])[O-] [Sodium orthovanadate, reference compound] |  |  |  |  |  |  |  | 31–67% | inhibition of enzymatic activity of PTP1B (in words) ([1]; complexes and orthovanadate 39.0625 nM to 5 µM, ligands 500 nM to 5 µM): inhibited the enzymatic activity of PTP1B phosphatase in a concentration-dependent manner
